This passage reports TGI results from PubChem BioAssay (NCI).

SMILES strings stand for the structures.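 Growth conditions: 96-well plates. Treatment: test compound, 48 hours, 5 concentrations. Analysis: linear interpolation between bracketing concentrations; unreached endpoints set to highest concentration. TGI: total growth inhibition.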

Among the test systems are OVCAR-5 ovarian; HCT-116 colon; OVCAR-8 ovarian; SR leukemia; CAKI-1 renal; HOP-92 NSCLC; HL-60(TB) leukemia; MDA-N; A498 renal.
Holding throughout (assay): NCI tumour cell line growth inhibition, 48 h

`COC[C@H](Cc1ccccc1)N=Cc1ccccc1`: the TGI in the experiment with OVCAR-5 ovarian, in the experiment on HCT-116 colon, in the experiment with OVCAR-8 ovarian, with SR leukemia and with CAKI-1 renal was > 100 µM throughout.

With `CCOC(=O)C1C(=O)C=C(c2cc(C)ccc2O)CC1c1cccc(Br)c1` (stereo not drawn), the TGI with OVCAR-5 ovarian is 68.9 µM; in the experiment with HOP-92 NSCLC it was 29.8 µM; in the experiment on HL-60(TB) leukemia, 44.2 µM; in the experiment with HCT-116 colon, 40.7 µM; with MDA-N, 21.2 µM; with OVCAR-8 ovarian it was 92.7 µM. Also, the TGI with SR leukemia is 25.4 µM; in the experiment with CAKI-1 renal, 80.5 µM.

With `O=C1NC(N2CCCC(CO)C2)=N/C1=C\c1ccc(O)cc1` (stereo not drawn), the TGI in the experiment on OVCAR-5 ovarian, in the experiment on HOP-92 NSCLC, in the experiment on HL-60(TB) leukemia, in the experiment on HCT-116 colon, in the experiment on MDA-N and with OVCAR-8 ovarian was > 100 µM in each case. The TGI in the experiment on SR leukemia and in the experiment on CAKI-1 renal was > 100 µM each time.

Consider `COc1cc(NS(C)(=O)=O)ccc1N1Cc2cnc3ccc4[nH]ccc1c4c23`, for which the TGI with OVCAR-5 ovarian, in the experiment on A498 renal, in the experiment on HOP-92 NSCLC, in the experiment on HL-60(TB) leukemia, with HCT-116 colon and with MDA-N was > 100 µM throughout. Besides, the TGI with OVCAR-8 ovarian and in the experiment on CAKI-1 renal was > 100 µM in each case.

For `CCOC(=O)C1(C/C=C\CBr)CCCCCCC1=O` (stereo not drawn), the TGI in the experiment with OVCAR-5 ovarian, in the experiment on A498 renal, in the experiment on HL-60(TB) leukemia, in the experiment with HCT-116 colon, with MDA-N and in the experiment with OVCAR-8 ovarian was > 100 µM throughout. The TGI in the experiment with CAKI-1 renal was > 100 µM.

As to `Cc1[nH]c(=O)nc2c1C(=O)N(C(C)C)C(NC(C)C)S2` (stereo not drawn), the TGI with OVCAR-5 ovarian, in the experiment on A498 renal, with HOP-92 NSCLC, in the experiment on HL-60(TB) leukemia, in the experiment with HCT-116 colon and in the experiment on MDA-N was > 100 µM each time. The TGI in the experiment with OVCAR-8 ovarian and with CAKI-1 renal was > 100 µM each time.

On to `C[N+](C)([O-])Cc1cccc(NC(=O)c2ccc(C(=O)Nc3cccc(C[N+](C)(C)[O-])c3)cc2)c1`, for which the TGI in the experiment with OVCAR-5 ovarian, in the experiment with HOP-92 NSCLC, in the experiment on HL-60(TB) leukemia, with HCT-116 colon, in the experiment on OVCAR-8 ovarian and in the experiment on SR leukemia was > 100 µM each time. For the same molecule, the TGI in the experiment with CAKI-1 renal was > 100 µM.

Consider `CC(C)(C)OC(=O)N(CCCN)CCCCN(CCCN)C(=O)OC(C)(C)C`, for which the TGI in the experiment with OVCAR-5 ovarian, in the experiment with A498 renal, with HOP-92 NSCLC, in the experiment on HL-60(TB) leukemia, in the experiment with HCT-116 colon and in the experiment with OVCAR-8 ovarian was > 100 µM in each case. The TGI in the experiment with SR leukemia and in the experiment on CAKI-1 renal was > 100 µM each time.

Take `COCN1C(=O)[C@@H]2C[C@@H](OC/C=C/CBr)CN2C(=O)c2ccccc21`: the TGI was 49.7 µM in the experiment on OVCAR-5 ovarian; 66.4 µM in the experiment with A498 renal; > 100 µM with HL-60(TB) leukemia; 42.7 µM in the experiment on HCT-116 colon; 40.3 µM in the experiment on MDA-N; 34 µM in the experiment on OVCAR-8 ovarian. The molecule further registered a TGI with CAKI-1 renal of 38.7 µM.

Take `CCN1CCc2sc3[nH]c(=S)n(C)c(=O)c3c2C1`: the TGI was > 100 µM with OVCAR-5 ovarian; > 100 µM in the experiment on A498 renal; > 100 µM in the experiment on HOP-92 NSCLC; 1.83 µM in the experiment with HL-60(TB) leukemia; > 100 µM in the experiment on HCT-116 colon; > 100 µM in the experiment on MDA-N. For the same molecule, the TGI with OVCAR-8 ovarian and in the experiment with CAKI-1 renal was > 100 µM in each case.

On to `COc1cc2c(cc1C)NC(=O)/C2=C/c1c(Cl)n(C)c2ccccc12`, for which the TGI in the experiment on OVCAR-5 ovarian worked out at 36.4 µM; in the experiment on A498 renal it was 21.5 µM; in the experiment on HL-60(TB) leukemia, 8.94 µM; in the experiment on HCT-116 colon, 21.9 µM; with MDA-N, 5.53 µM; in the experiment with OVCAR-8 ovarian, 35.8 µM. In the experiment with CAKI-1 renal, this molecule returned a TGI of 24.4 µM.

For `CCO/C=N/C1=C(C#N)C(c2ccc(OC)c(OC)c2)c2c(-c3ccccc3)nn(-c3ccccc3)c2O1` (stereo not drawn), the TGI is 52.6 µM in the experiment on OVCAR-5 ovarian; 30 µM in the experiment on HOP-92 NSCLC; 8.85 µM in the experiment with HL-60(TB) leukemia; 28.3 µM in the experiment with HCT-116 colon; 35.5 µM with MDA-N; 47.6 µM in the experiment on OVCAR-8 ovarian. This molecule also registered a TGI in the experiment with CAKI-1 renal of 33.3 µM.

Turning to `CC1=C2CC3=C(C)C(=O)O[C@H]3C[C@@H](C)[C@@H]2CC1`, the TGI with OVCAR-5 ovarian, with A498 renal, in the experiment with HOP-92 NSCLC, in the experiment on HL-60(TB) leukemia, with HCT-116 colon and in the experiment on OVCAR-8 ovarian was > 100 µM throughout. For the same molecule, the TGI in the experiment on SR leukemia and in the experiment with CAKI-1 renal was > 100 µM throughout.

For the molecule `COc1ccc2[nH]c3c(C)c4ccnc(NCCCN(C)CCCNC(=O)NCCCN(C)CCCNc5nccc6c(C)c7[nH]c8ccc(OC)cc8c7c(C)c56)c4c(C)c3c2c1`, the TGI was 4.13 µM in the experiment with OVCAR-5 ovarian; 5 µM in the experiment on A498 renal; 3.93 µM with HOP-92 NSCLC; 1.2 µM with HL-60(TB) leukemia; 5.48 µM in the experiment with HCT-116 colon; 3.34 µM in the experiment with CAKI-1 renal.

With `COC[C@@H](N=Cc1ccc(OC)cc1)C(C)C`, the TGI in the experiment on OVCAR-5 ovarian, in the experiment on HCT-116 colon, in the experiment with MDA-N, with OVCAR-8 ovarian, in the experiment on SR leukemia and in the experiment on CAKI-1 renal was > 100 µM throughout.

`N#Cc1ccc(/C=C2\Cc3ccccc3C2=O)cc1`: the TGI in the experiment with HL-60(TB) leukemia, in the experiment on HCT-116 colon, in the experiment on MDA-N, with OVCAR-8 ovarian, with SR leukemia and in the experiment on CAKI-1 renal was > 100 µM each time.

As for `OB1OCc2ccccc21`, the TGI in the experiment on A498 renal, in the experiment with HL-60(TB) leukemia, in the experiment with HCT-116 colon, in the experiment with OVCAR-8 ovarian, with SR leukemia and in the experiment on CAKI-1 renal was > 100 µM in each case.

As to `CN(C)/C=C/c1ccnc2c1C(=O)c1ccccc1C2=O`, the TGI was 32.5 µM with OVCAR-5 ovarian; > 85.6 µM in the experiment with A498 renal; > 100 µM with HOP-92 NSCLC; > 55.5 µM in the experiment with HL-60(TB) leukemia; 20.9 µM in the experiment with HCT-116 colon; 3.03 µM in the experiment with MDA-N. For the same molecule, the TGI in the experiment with OVCAR-8 ovarian was 59.1 µM; in the experiment with CAKI-1 renal, 50.8 µM.
